According to the supplement of paper PMC9912026:

Test system: A375_aEGFR2
Test: pERK immunofluorescence normalised to no-drug reference (=1); higher = more ERK phosphorylation (less pathway inhibition)
Conditions: drug treatment time 24 h, EGF time 8 h
Description: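 A375 CRISPRa-EGFR (A375_aEGFR2) or HT29 cells were treated with two-drug dose combinations (vemurafenib, LY3009120, cobimetinib) for 24 h, then stimulated with EGF (100 ng/mL) or mock medium for 8 h. pERK (T202/Y204) was measured by immunofluorescence as the cytosolic population average, normalised to an untreated no-drug reference of the block (=1). Averages of 2 technical replicates. A375 in 5% FBS, HT29 in 10% FBS.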

CCCS(=O)(=O)Nc1ccc(F)c(C(=O)c2c[nH]c3ncc(-c4ccc(Cl)cc4)cc23)c1F [Vemurafenib] + CNc1ncc2cc(-c3cc(NC(=O)NCCC(C)(C)C)c(F)cc3C)c(C)nc2n1 [LY3009120]
pERK immunofluorescence normalised
Conditions	EGF 0 ng/mL	EGF 100 ng/mL
drug A concentration 0 µM, drug B concentration 0.0001 µM	1.02	1.04
drug A concentration 0 µM, drug B concentration 0.000316228 µM	1.03	1.07
drug A concentration 0 µM, drug B concentration 0.001 µM	1.06	1.02
drug A concentration 0 µM, drug B concentration 0.00316228 µM	0.865	0.989
drug A concentration 0 µM, drug B concentration 0.01 µM	0.696	0.807
drug A concentration 0 µM, drug B concentration 0.0316228 µM	0.376	0.565
drug A concentration 0 µM, drug B concentration 0.1 µM	0.193	0.368
drug A concentration 0 µM, drug B concentration 0.316228 µM	0.157	0.264
drug A concentration 0 µM, drug B concentration 1 µM	0.149	0.175
drug A concentration 0 µM, drug B concentration 3.16228 µM	0.153	0.149
drug A concentration 0.000316228 µM, drug B concentration 0 µM	1.03	0.99
drug A concentration 0.000316228 µM, drug B concentration 0.0001 µM	1.03	0.996
drug A concentration 0.000316228 µM, drug B concentration 0.000316228 µM	1.03	1.02
drug A concentration 0.000316228 µM, drug B concentration 0.001 µM	0.876	0.959
drug A concentration 0.000316228 µM, drug B concentration 0.00316228 µM	0.793	0.849
drug A concentration 0.000316228 µM, drug B concentration 0.01 µM	0.488	0.648
drug A concentration 0.000316228 µM, drug B concentration 0.0316228 µM	0.263	0.454
drug A concentration 0.000316228 µM, drug B concentration 0.1 µM	0.168	0.312
drug A concentration 0.000316228 µM, drug B concentration 0.316228 µM	0.151	0.206
drug A concentration 0.000316228 µM, drug B concentration 1 µM	0.15	0.155
drug A concentration 0.000316228 µM, drug B concentration 3.16228 µM	0.15	0.14
drug A concentration 0.001 µM, drug B concentration 0 µM	1	1.02
drug A concentration 0.001 µM, drug B concentration 0.0001 µM	1.01	0.999
drug A concentration 0.001 µM, drug B concentration 0.000316228 µM	0.997	0.982
drug A concentration 0.001 µM, drug B concentration 0.001 µM	0.96	0.953
drug A concentration 0.001 µM, drug B concentration 0.00316228 µM	0.806	0.892
drug A concentration 0.001 µM, drug B concentration 0.01 µM	0.501	0.635
drug A concentration 0.001 µM, drug B concentration 0.0316228 µM	0.278	0.468
drug A concentration 0.001 µM, drug B concentration 0.1 µM	0.168	0.331
drug A concentration 0.001 µM, drug B concentration 0.316228 µM	0.148	0.215
drug A concentration 0.001 µM, drug B concentration 1 µM	0.15	0.156
drug A concentration 0.001 µM, drug B concentration 3.16228 µM	0.149	0.134
drug A concentration 0.00316228 µM, drug B concentration 0 µM	0.995	0.977
drug A concentration 0.00316228 µM, drug B concentration 0.0001 µM	1.05	0.996
drug A concentration 0.00316228 µM, drug B concentration 0.000316228 µM	0.961	1.04
drug A concentration 0.00316228 µM, drug B concentration 0.001 µM	0.922	0.953
drug A concentration 0.00316228 µM, drug B concentration 0.00316228 µM	0.781	0.836
drug A concentration 0.00316228 µM, drug B concentration 0.01 µM	0.534	0.641
drug A concentration 0.00316228 µM, drug B concentration 0.0316228 µM	0.27	0.456
drug A concentration 0.00316228 µM, drug B concentration 0.1 µM	0.167	0.305
drug A concentration 0.00316228 µM, drug B concentration 0.316228 µM	0.145	0.212
drug A concentration 0.00316228 µM, drug B concentration 1 µM	0.15	0.154
drug A concentration 0.00316228 µM, drug B concentration 3.16228 µM	0.149	0.139
drug A concentration 0.01 µM, drug B concentration 0 µM	0.897	0.969
drug A concentration 0.01 µM, drug B concentration 0.0001 µM	0.912	0.967
drug A concentration 0.01 µM, drug B concentration 0.000316228 µM	0.891	0.96
drug A concentration 0.01 µM, drug B concentration 0.001 µM	0.889	0.91
drug A concentration 0.01 µM, drug B concentration 0.00316228 µM	0.732	0.789
drug A concentration 0.01 µM, drug B concentration 0.01 µM	0.471	0.625
drug A concentration 0.01 µM, drug B concentration 0.0316228 µM	0.28	0.469
drug A concentration 0.01 µM, drug B concentration 0.1 µM	0.165	0.311
drug A concentration 0.01 µM, drug B concentration 0.316228 µM	0.15	0.205
drug A concentration 0.01 µM, drug B concentration 1 µM	0.153	0.157
drug A concentration 0.01 µM, drug B concentration 3.16228 µM	0.148	0.138
drug A concentration 0.0316228 µM, drug B concentration 0 µM	0.695	0.896
drug A concentration 0.0316228 µM, drug B concentration 0.0001 µM	0.759	0.9
drug A concentration 0.0316228 µM, drug B concentration 0.000316228 µM	0.727	0.935
drug A concentration 0.0316228 µM, drug B concentration 0.001 µM	0.745	0.852
drug A concentration 0.0316228 µM, drug B concentration 0.00316228 µM	0.669	0.768
drug A concentration 0.0316228 µM, drug B concentration 0.01 µM	0.457	0.635
drug A concentration 0.0316228 µM, drug B concentration 0.0316228 µM	0.251	0.454
drug A concentration 0.0316228 µM, drug B concentration 0.1 µM	0.166	0.319
drug A concentration 0.0316228 µM, drug B concentration 0.316228 µM	0.146	0.216
drug A concentration 0.0316228 µM, drug B concentration 1 µM	0.152	0.156
drug A concentration 0.0316228 µM, drug B concentration 3.16228 µM	0.15	0.138
drug A concentration 0.1 µM, drug B concentration 0 µM	0.453	0.761
drug A concentration 0.1 µM, drug B concentration 0.0001 µM	0.436	0.789
drug A concentration 0.1 µM, drug B concentration 0.000316228 µM	0.465	0.802
drug A concentration 0.1 µM, drug B concentration 0.001 µM	0.482	0.771
drug A concentration 0.1 µM, drug B concentration 0.00316228 µM	0.416	0.719
drug A concentration 0.1 µM, drug B concentration 0.01 µM	0.321	0.61
drug A concentration 0.1 µM, drug B concentration 0.0316228 µM	0.206	0.45
drug A concentration 0.1 µM, drug B concentration 0.1 µM	0.161	0.329
drug A concentration 0.1 µM, drug B concentration 0.316228 µM	0.152	0.229
drug A concentration 0.1 µM, drug B concentration 1 µM	0.151	0.161
drug A concentration 0.1 µM, drug B concentration 3.16228 µM	0.147	0.137
drug A concentration 0.316228 µM, drug B concentration 0 µM	0.252	0.767
drug A concentration 0.316228 µM, drug B concentration 0.0001 µM	0.262	0.764
drug A concentration 0.316228 µM, drug B concentration 0.000316228 µM	0.264	0.746
drug A concentration 0.316228 µM, drug B concentration 0.001 µM	0.292	0.721
drug A concentration 0.316228 µM, drug B concentration 0.00316228 µM	0.295	0.653
drug A concentration 0.316228 µM, drug B concentration 0.01 µM	0.266	0.579
drug A concentration 0.316228 µM, drug B concentration 0.0316228 µM	0.203	0.431
drug A concentration 0.316228 µM, drug B concentration 0.1 µM	0.158	0.293
drug A concentration 0.316228 µM, drug B concentration 0.316228 µM	0.146	0.19
drug A concentration 0.316228 µM, drug B concentration 1 µM	0.149	0.149
drug A concentration 0.316228 µM, drug B concentration 3.16228 µM	0.146	0.137
drug A concentration 1 µM, drug B concentration 0 µM	0.192	0.784
drug A concentration 1 µM, drug B concentration 0.0001 µM	0.185	0.755
drug A concentration 1 µM, drug B concentration 0.000316228 µM	0.191	0.728
drug A concentration 1 µM, drug B concentration 0.001 µM	0.204	0.725
drug A concentration 1 µM, drug B concentration 0.00316228 µM	0.211	0.678
drug A concentration 1 µM, drug B concentration 0.01 µM	0.201	0.598
drug A concentration 1 µM, drug B concentration 0.0316228 µM	0.184	0.467
drug A concentration 1 µM, drug B concentration 0.1 µM	0.159	0.308
drug A concentration 1 µM, drug B concentration 0.316228 µM	0.152	0.195
drug A concentration 1 µM, drug B concentration 1 µM	0.149	0.149
drug A concentration 1 µM, drug B concentration 3.16228 µM	0.152	0.137
drug A concentration 3.16228 µM, drug B concentration 0 µM	0.176	0.761
drug A concentration 3.16228 µM, drug B concentration 0.0001 µM	0.165	0.663
drug A concentration 3.16228 µM, drug B concentration 0.000316228 µM	0.172	0.678
drug A concentration 3.16228 µM, drug B concentration 0.001 µM	0.168	0.701
drug A concentration 3.16228 µM, drug B concentration 0.00316228 µM	0.171	0.649
drug A concentration 3.16228 µM, drug B concentration 0.01 µM	0.169	0.625
drug A concentration 3.16228 µM, drug B concentration 0.0316228 µM	0.165	0.508
drug A concentration 3.16228 µM, drug B concentration 0.1 µM	0.156	0.337
drug A concentration 3.16228 µM, drug B concentration 0.316228 µM	0.145	0.197
drug A concentration 3.16228 µM, drug B concentration 1 µM	0.147	0.15
drug A concentration 3.16228 µM, drug B concentration 3.16228 µM	0.15	0.156
drug A concentration 10 µM, drug B concentration 0 µM	0.164	0.668
drug A concentration 10 µM, drug B concentration 0.0001 µM	0.172	0.644
drug A concentration 10 µM, drug B concentration 0.000316228 µM	0.166	0.629
drug A concentration 10 µM, drug B concentration 0.001 µM	0.167	0.651
drug A concentration 10 µM, drug B concentration 0.00316228 µM	0.171	0.663
drug A concentration 10 µM, drug B concentration 0.01 µM	0.177	0.628
drug A concentration 10 µM, drug B concentration 0.0316228 µM	0.172	0.553
drug A concentration 10 µM, drug B concentration 0.1 µM	0.165	0.335
drug A concentration 10 µM, drug B concentration 0.316228 µM	0.166	0.228
drug A concentration 10 µM, drug B concentration 1 µM	0.157	0.177
drug A concentration 10 µM, drug B concentration 3.16228 µM	0.162	0.153
